Experiment in all cases: standardised AUC of viability dose-response curve (72 h) (fraction (0-1)); higher = less growth inhibition (more resistant)
One experiment concerns RD-ES. In a few lines:
(§1)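 After 72 h with 2.5 µl of compound (compound-plate series 10 mM to 0.0002 mM), triplicate wells of sarcoma cell lines in 384-well plates were read with ATPLite, with viability scaled 1 (full) to 0 (none) and fitted with a four-parameter log-logistic model. The values give the standardised area under the dose-response curve in log-dose space from a modified drexplorer computeAUC. A value of 1 means no response and 0 means full response.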

Another experiment relates to SK-LMS-1. In a few lines: as §1
The next experiment deals with SW872. In a few lines:
as §1

The subject of another experiment is RD. The essentials:
as §1

The next experiment has as its system SK-ES-1. The essentials:
as §1

In the next experiment the test system is HT1080. The essentials:
as §1

A further experiment deals with SYO-1. In a few lines:
as §1

The next experiment deals with MES-SA. The essentials: as §1
A further experiment concerns VA-ES-BJ. The essentials:
as §1

For the next experiment, the system named is SW982. The essentials:
as §1

The next experiment relates to SW1353. The essentials:
as §1

The test system of another experiment is G401. The essentials: as §1
The test system of the next experiment is HS729. In a few lines: as §1
The test system of another experiment is KHOS-NP. In a few lines:
as §1

A further experiment deals with A204. The essentials:
as §1

In another experiment the test system is SW684. The essentials: as §1
The subject of a further experiment is KHOS-240S. In a few lines: as §1

Turning to `O=C(Cc1ccc(-c2ccc(OCCN3CCOCC3)cc2)cn1)NCc1ccccc1` [KX2-391], the “standardised AUC” value in the experiment with RD-ES is 0.539; in the experiment with SK-LMS-1, 0.676; in the experiment with SW872, 0.733; in the experiment with RD, 0.636; with SK-ES-1 it was 0.484; in the experiment with HT1080, 0.579. For the same molecule, the “standardised AUC” value in the experiment with SYO-1 was determined as 0.668; with MES-SA, 0.57; in the experiment with VA-ES-BJ it was 0.632; with SW982, 0.63; in the experiment on SW1353, 0.752; in the experiment with G401, 0.729. Further, the “standardised AUC” value with HS729 was determined as 0.742; in the experiment with KHOS-NP it was 0.72; with A204, 0.677; with SW684, 0.827; in the experiment with KHOS-240S, 0.609.

In the case of `C[C@@H]1COCCN1c1cc(-c2ccnn2C)c2ccnc(-c3ccn[nH]3)c2n1`, the “standardised AUC” value with RD-ES was 0.673; with SK-LMS-1, 0.751; in the experiment on SW872, 0.706; with RD, 0.75; with SK-ES-1, 0.637; in the experiment on HT1080 it was 0.686. Moreover, the “standardised AUC” value came out at 0.606 in the experiment with SYO-1; 0.641 in the experiment with MES-SA; 0.626 in the experiment on VA-ES-BJ; 0.615 in the experiment with SW982; 0.791 in the experiment on SW1353; 0.819 with G401. In addition, the “standardised AUC” value in the experiment on HS729 came to 0.782; in the experiment on KHOS-NP it was 0.826; in the experiment on A204, 0.689; in the experiment with SW684 it was 0.828; with KHOS-240S, 0.603.

Values taken from the supplement of paper PMC10883282.
